The source of these data is patent US7384657B2, “Composition of natural herb extract for treating cardiovascular disease and its method of preparation thereof” (priority 2004, dated 2008).

The conditions of series [1]: 100 mg/kg i.v. On the procedure:
Study of pharmacokinetics of Matrine is carried out. […] Rats are given intravenous injection of oxymatrine 100 mg/kg.

Series [2] can be described thus: pharmacokinetics of oxymatrine and matrine in mice.
For series [3] the following is noted: cited from earlier work.
The next series is described as follows: solubility. On the procedure:
Matrine is also called matricaria. Its molecular formula is C15H24N2O and its molecular weight is 248.36. It has four isomers: α, β, γ, and δ isomers. α-matrine is the one commonly seen. It is a needle or rhombohedral crystal, having a melting point 76° C. and [α]D+39.1° (H2O).
Oxymatrine has a molecular formula C15H24N2O2 and a molecular weight 264.36. It is a colorless columnar crystal (Me2CO), melting point 162° C. (hydrate), 207° C. (anhydrate), [α]D+47.7° (C2H5OH). […] It can change to matrine through reaction with SO2.

Where [4] appears, read: within 24 hours of intramuscular oxymatrine 100 mg/kg.

Read-outs that look alike come from different tables or passages of the source.

In the case of `O=C1CCC[C@@H]2[C@H]3CCC[N+]4([O-])CCC[C@@H](CN12)[C@@H]34` (stereo partly shown) [Oxymatrine], the distribution and elimination entry in series [1] was “distribution is wide and the elimination fast”. The “transformation in the gastrointestinal tract” value in series [2] (stomach perfusion) is reported as “gradually transforms into matrine in the gastrointestinal tract”. For the same molecule, in series [2] (setting [4]), the excretion of oxymatrine was found to be 5.1% and the “matrine found in the emiction of urine” value came to 20.6%. The LD50 in series [3] (intramuscular injection) was 256.74 ± 573.6 mg/kg. Further, the 50% lethal dose (LD50) in series [3] (intravenous injection) was 144.2 ± 22.8 mg/kg. Besides, the solubility entry in “solubility” was “soluble in water, chloroform and ethanol, but nearly insoluble in ether, methyl ether and petroleum ether”.
